Reference: EP0317728A2, “Use of 9-(beta-D-arabinofuranosyl) adenine derivatives for the preparation of pharmaceutical compositions for the treatment of aids” (WARNER-LAMBERT COMPANY, priority 1987, dated 1989)

Experiments:
Type in all cases: cell-based
HTLV-III/LAV [1] = assay: Inhibition of cytopathic effect (syncytial giant cell formation) in HTLV-III/LAV infected H9 cells; details: cytopathic effect (syncytial giant cell formation) on day 7 post infection 50% that in drug-free control cultures, read-out: CPE* 50% Inhibitory Concentrations
Procedure: (§1) The antiviral activity of the compounds of the present invention against the HTLV-III/LAV virus was evaluated by determining the degree of inhibition of cytopathic effect (CPE) and reverse transcriptase (RT) activity of the drug in a subline of H9 cells at various concentrations.
(§2) HTLV-III/LAV inoculum was standardized for reverse transcriptase (RT) activity using purified avian myeloblastosis viral RT (BRL Labs, Gaithersberg, MD) and used to infect polybrene treated H9 cells at 0.02 RT units of HTLV-III/LAV per 2 x 10⁶ cells. The virus was adsorbed for two hours at 37°C and then the cells were washed and resuspended in RPMI-10% fetal bovine serum at 2 x 10⁵ cells/ml and dispersed in 1-ml aliquots into 24-well plates.
Syncytial giant cell formation appeared at 5-6 days post infection, and this cytopathic effect (CPE) was quantitatively measured by dispersing 0.1-ml aliquots into 0.1-ml portions of absolute methanol and enumerating the giant cells microscopically. The inhibition of cytopathic effect by treatment with representative compounds of the present invention is shown in the table, together with the inhibitory effect on reverse transcriptase activity.

HTLV-III/LAV [2] = assay: Inhibition of reverse transcriptase activity in culture medium of HTLV-III/LAV infected H9 cells; details: reverse transcriptase in the culture medium on day 10 post infection 50% that in drug-free control cultures, read-out: RT** 50% Inhibitory Concentrations
Procedure: as §1, §2
Reverse transcriptase activity (RT) was measured using 1-ml culture aliquots which were clarified at 600 xg for 30 minutes, precipitated in 10% polyethylene glycol-0.13 M NaCl at 4°C for eighteen hours, and centrifuged at 600 xg for sixty minutes. The pellet was dissolved in glycerol-Tris buffer (50% glycerol, 25 mM Tris HCl, pH 7.5, 5 mM dithiothreitol, 15 mM KCl, 0.025% Triton-X, and 0.25 mM EDTA). […] Background counts were determined using poly dA oligo dT₁₂₋₁₈ as template and subtracted from the poly rA dT primer to determine the thymidine incorporation specifically due to reverse transcriptase activity. […]

uninfected H9 cells = details: human, 6 day
Procedure: as §1

Structure (SMILES) | IC50 (HTLV-III/LAV [1]) [µM] | IC50 (HTLV-III/LAV [2]) [µM] | IC50 (HTLV-III/LAV [1]; Human immunodeficiency virus 1, 168 h) [µM] | IC50 (HTLV-III/LAV [2]; Human immunodeficiency virus 1, 240 h) [µM] | Cell Number*** 50% Inhibitory Concentrations (uninfected H9 cells) [µM]
Nc1ncnc2c1ncn2[C@@H]1O[C@H](COP(=O)(O)O)[C@@H](O)[C@@H]1O [9-(β-D-arabinofuranosyl)adenine, 5′-phosphate] | 18 | 11 | – | – | –
Nc1ncnc2c1ncn2[C@@H]1O[C@H](CO)[C@@H](O)[C@@H]1O [9-(β-D-arabinofuranosyl)adenine] | – | – | 7 | 7 | >100
